Marks after values point to notes of the source that are not given here.
Tests used:
[1] = tested on: Colon cancer HT29 cells; experiment: In vitro antitumor activity test (MTT), HT29; format: cell-based; conditions: Homo sapiens, HT-29, 24 h
Experimental: (§1) 13 human tumor cell lines were selected and cultured in RPMI-1640 medium (Gibco company) containing 10% inactivated fetal bovine serum, 100 U/ml penicillin and 100 U/ml streptomycin, cultured at 37° C. in a 5% CO2 incubator, and passaged once every 2 days. Using the MTT method, cells in the logarithmic growth phase were digested with 0.25% trypsin, centrifuged at 1000 r/min for 5 min, 8×10^3 cells were added to each well, and seeded in a 96-well plate, and 180 μl of cell suspension was added to each well, and a blank was set at the same time. The 96-well plate inoculated with tumor cells was placed in a carbon dioxide incubator for 24 hours, and then 20 μl of the drug was added, and an equal volume of culture medium was added to the blank control well, and the drug was divided into 8 concentrations from 50 μg/L to 0.4 μg/L. Three duplicate wells were set for each drug concentration and placed in an incubator for 24 h. 10 μl of MTT solution (5 mg/ml) was added to each well, and the culture was continued for 4 h. The supernatant was aspirated and discarded, 100 μl of dimethyl sulfoxide (DMSO) solution was added to each well, placed on a micro shaker for 10 min, and the absorbance (A value) was measured at a wavelength of 492 nm in a microplate reader, and the inhibition rate of the drug on tumor cells was calculated according to the following formula.
(§2) In this test, the IC50 value of the compound on tumor cells was calculated by the Origin software according to the inhibition rate of the compound. AC-201 in the following table was the abbreviation of PL-AC-201, and so on.

[2] = tested on: Liver cancer HepG-2 cells; experiment: In vitro antitumor activity test (MTT), HepG-2; format: cell-based; conditions: Homo sapiens, HepG2; Liver cancer HepG-2, MTT, 24 h
Experimental: as §1, §2

[3] = tested on: Human osteosarcoma MG63 cells; experiment: In vitro antitumor activity test (MTT), MG63; format: cell-based; conditions: MG-63, 24 h
Experimental: as §1, §2

[4] = tested on: Bel-7402 liver tumors; experiment: Transplanted tumor in nude mice, intraperitoneal, Bel-7402; format: in vivo, BALB/c nude mice; conditions: 8 administrations; for Tumor inhibition rate / Tumor weight: Bel-7402, 5 mg/kg i.p. once every 3 days; for Body Weight After administration: Bel-7402 tumor-bearing BALB/c mice, 5 mg/kg i.p. once every 3 days
Experimental: (§3) BALB/c nude mice were used to inoculate Bel-7402, HepG-2 and SK-hep1 liver tumors according to the transplanted tumor research method under aseptic operation, and the cell density was not less than 5×10^6/ml, 0.2 ml was inoculated subcutaneously in the axilla of the right hind limb of each mouse. After the cells were inoculated, the cells were administered intraperitoneally (concentration: 5 mg/kg), once every 3 days, for a total of 8 administrations. After the 2nd day of drug withdrawal, all tumor-bearing mice were sacrificed, and their body weight, tumor weight and tumor inhibition were weighed.

[5] = tested on: Breast cancer MCF-7 cells; experiment: In vitro antitumor activity test (MTT), MCF-7; format: cell-based; conditions: Homo sapiens, MCF7; Breast cancer MCF-7, MTT, 24 h
Experimental: as §1, §2

[6] = tested on: SK-hep1 liver tumors; experiment: Transplanted tumor in nude mice, intraperitoneal, SK-hep1; format: in vivo, BALB/c nude mice; conditions: 8 administrations; for Tumor inhibition rate / Tumor weight: SK-hep1, 5 mg/kg i.p. once every 3 days; for Body Weight After administration: SK-hep1 tumor-bearing BALB/c mice, 5 mg/kg i.p. once every 3 days
Experimental: as §3

[7] = Acute toxicity test of single administration to ICR mice; conditions: mouse, in vivo, intravenous, single tail vein injection, observed 7 days
Experimental: ICR mice, 18-22 g, were raised in a common-grade animal room, fed with common feed, and ingested freely. The group distance and dose were determined after exploring the Dm and Dn of the compounds of the examples. Five concentrations of the compounds of the examples were formulated at the desired dose. The corresponding doses of drugs were injected into the tail vein according to body weight, and the blank control group was injected with normal saline. Immediately after administration, the performance and death of each animal were observed and recorded, and the possible toxic reaction or death of animals within 7 days after a single administration was observed and recorded.

[8] = tested on: Lung cancer H460 cells; experiment: In vitro antitumor activity test (MTT), H460; format: cell-based; conditions: Homo sapiens, NCI-H460, 24 h
Experimental: as §1, §2

[9] = tested on: Lung cancer A549 cells; experiment: In vitro antitumor activity test (MTT), A549; format: cell-based; conditions: Homo sapiens, 24 h
Experimental: as §1, §2

[10] = tested on: Liver cancer SK-hep1 cells; experiment: In vitro antitumor activity test (MTT), SK-hep1; format: cell-based; conditions: Homo sapiens, 24 h
Experimental: as §1, §2

[11] = tested on: 13 human tumor cell lines; experiment: Average IC50 over the tumor cell lines (MTT); format: cell-based; conditions: mean IC50 for each tumor, read-out: AverageIC50
Experimental: as §1, §2
The ratio of the hemolytic concentration MHC of the compound to the mean IC50 for each tumor was referred to as the therapeutic index (TI). The safety of the compound was evaluated by the therapeutic index. The higher the therapeutic index, the greater the safety range of the compound.

[12] = tested on: Lung cancer H1299 cells; experiment: In vitro antitumor activity test (MTT), H1299; format: cell-based; conditions: Homo sapiens, NCI-H1299, 24 h
Experimental: as §1, §2

[13] = tested on: HepG-2 liver tumors; experiment: Transplanted tumor in nude mice, intraperitoneal, HepG-2; format: in vivo, BALB/c nude mice; conditions: 8 administrations; for Tumor inhibition rate / Tumor weight: HepG-2, 5 mg/kg i.p. once every 3 days; for Body Weight After administration: HepG-2 tumor-bearing BALB/c mice, 5 mg/kg i.p. once every 3 days
Experimental: as §3

[14] = tested on: Pancreatic cancer Bxpc-3 cells; experiment: In vitro antitumor activity test (MTT), Bxpc-3; format: cell-based; conditions: Homo sapiens; Pancreatic cancer Bxpc-3, MTT, 24 h
Experimental: as §1, §2

[15] = tested on: Liver cancer Bel-7402 cells; experiment: In vitro antitumor activity test (MTT), Bel-7402; format: cell-based; conditions: Homo sapiens; Liver cancer Bel-7402, MTT, 24 h
Experimental: as §1, §2

[16] = tested on: Lung cancer H292 cells; experiment: In vitro antitumor activity test (MTT), H292; format: cell-based; conditions: Homo sapiens, NCI-H292, 24 h
Experimental: as §1, §2

[17] = tested on: human red blood cells; experiment: Detection of hemolytic activity; format: cell-based
Experimental: 2-3 ml of human blood was drawn using an anticoagulant tube, thoroughly mixed, and kept at 4° C. for later use. 2 ml of blood was aspirated and added with 2-3 ml of PBS, followed by gently pipetting and centrifugation for 5 min at 1000 rpm, which was repeated 3-4 times. After the last centrifugation, PBS was aspirated, PBS was added to 40 ml (20 times the volume), and the number of blood cells at this time was 2×10^8 cells/ml. The red blood cell suspension was added to the plate (U-shaped 96-well plate), and 70 μl/well was used as a negative well. Only PBS was added to blank wells, 140 μl/well. 2 ml of the red blood cell suspension was centrifuged, PBS was discarded, 2 ml of pure water was added, mixed well, and 140 μl/well was used as a positive well. The diluted polypeptide solutions of different concentrations were added to the plate, 70 μl/well. Incubated at 37° C., 87 rpm, shaken for 2h, centrifuged for 5 min at 3000 rpm. The OD value measured by microplate reader: After centrifugation, 90 μl of supernatant was drawn and transferred to a flat-bottom 96-well plate, and the OD value at 578 nm was measured by microplate reader. ODtest-OD negative >0.1 (the first concentration that met the conditions was MHC).

[18] = tested on: Melanoma B16 cells; experiment: In vitro antitumor activity test (MTT), B16; format: cell-based; conditions: 24 h
Experimental: as §1, §2

[19] = tested on: Cervical cancer Hela cells; experiment: In vitro antitumor activity test (MTT), Hela; format: cell-based; conditions: Homo sapiens, 24 h
Experimental: as §1, §2

[20] = human red blood cells, 37° C., 2h, first concentration with ODtest-OD negative >0.1

CC1(C)CC(NC(=O)C(Cc2ccc(-c3ccccc3)cc2)NC(=O)Cc2ccccc2Nc2c(Cl)cccc2Cl)CC(C)(C)N1 (stereo not drawn) [PL-AC-203]
IC50 [1]: 37 nM | IC50 [2]: 16 nM | IC50 [3]: 26 nM | Tumor inhibition rate [4]: 58.7** % | Tumor weight [4]: 327.4 ± 10.4 mg | Body Weight After administration [4]: 24.1 ± 0.9 g | IC50 [5]: 23.1 nM | Tumor inhibition rate [6]: ^ΔΔ68.3** % | Tumor weight [6]: 355.2 ± 1.2 mg | Body Weight After administration [6]: 24.7 ± 0.5 g | LD50 at 7 days [7]: 39.8 mg/kg | IC50 [8]: 20.8 nM | IC50 [9]: 24.2 nM | IC50 [10]: 22.6 nM | IC50 [11]: 27.7 nM | IC50 [12]: 20.5 nM | Tumor inhibition rate [13]: ^ΔΔ72.4** % | Tumor weight [13]: 455.8 ± 9.9 mg | Body Weight After administration [13]: 22.7 ± 1.7 g | IC50 [14]: 49.4 nM | IC50 [15]: 45.4 nM | IC50 [16]: 24.9 nM | MHC ([17]; hemolytic concentration, in nM): 3e+06 nM | MHC [17, 20]: 2000 µg/mL | IC50 [18]: 30.1 nM | IC50 [19]: 20 nM

COc1ccc2c(c1)c(CC(=O)NC(Cc1ccc(-c3ccccc3)cc1)C(=O)NC1CC(C)(C)NC(C)(C)C1)c(C)n2C(=O)c1ccc(Cl)cc1 (stereo not drawn) [PL-AC-205]
IC50 [1]: 37 nM | IC50 [2]: 16.2 nM | IC50 [3]: 25.7 nM | Tumor inhibition rate [4]: ^ΔΔ69.4** % | Tumor weight [4]: 242.8 ± 6.6 mg | Body Weight After administration [4]: 23.9 ± 0.6 g | IC50 [5]: 23.2 nM | Tumor inhibition rate [6]: 62.0** % | Tumor weight [6]: 425.8 ± 10.7 mg | Body Weight After administration [6]: 22.2 ± 0.9 g | LD50 at 7 days [7]: 35.6 mg/kg | IC50 [8]: 20.3 nM | IC50 [9]: 24.5 nM | IC50 [10]: 12.4 nM | IC50 [11]: 25.3 nM | IC50 [12]: 20.3 nM | Tumor inhibition rate [13]: ^Δ71.8** % | Tumor weight [13]: 465.6 ± 5.9 mg | Body Weight After administration [13]: 21.9 ± 1.2 g | IC50 [14]: 45.3 nM | IC50 [15]: < 38.2 nM | IC50 [16]: 27.4 nM | MHC ([17]; hemolytic concentration, in nM): 4.2e+06 nM | MHC [17, 20]: 3000 µg/mL | IC50 [18]: 31.7 nM | IC50 [19]: 19.5 nM

CC(C(=O)NC(Cc1ccc(-c2ccccc2)cc1)C(=O)NC1CC(C)(C)NC(C)(C)C1)c1cccc(C(=O)c2ccccc2)c1 (stereo not drawn) [PL-AC-206]
IC50 [1]: 37.4 nM | IC50 [2]: 16.1 nM | IC50 [3]: 24.9 nM | Tumor inhibition rate [4]: ^ΔΔ71.4** % | Tumor weight [4]: 226.8 ± 9.1 mg | Body Weight After administration [4]: 23.8 ± 1.3 g | IC50 [5]: 22.5 nM | Tumor inhibition rate [6]: ^ΔΔ69.9** % | Tumor weight [6]: 337.3 ± 6.1 mg | Body Weight After administration [6]: 23.0 ± 1.5 g | LD50 at 7 days [7]: 31.7 mg/kg | IC50 [8]: 20 nM | IC50 [9]: 27.5 nM | IC50 [10]: 15.7 nM | IC50 [11]: 24.6 nM | IC50 [12]: 20.2 nM | Tumor inhibition rate [13]: ^ΔΔ74.6** % | Tumor weight [13]: 468.9 ± 2.2 mg | Body Weight After administration [13]: 23.5 ± 1.1 g | IC50 [14]: 37.7 nM | IC50 [15]: < 38.2 nM | IC50 [16]: 24.1 nM | MHC ([17]; hemolytic concentration, in nM): 4.9e+06 nM | MHC [17, 20]: 3000 µg/mL | IC50 [18]: 30.1 nM | IC50 [19]: 19.2 nM

From patent US12552747B2, “Amino acid derivative containing non-steroidal anti-inflammatory drug structure and preparation method and application thereof” (priority 2020, dated 2026)
